Molecular target: FXR (Homo sapiens (Human), UniProt Q96RI1)
Assay: FXR EC50 (FXR agonist activity reported with each example)
Assay type: cell-based

FXR, sequence (Q96RI1 262-486): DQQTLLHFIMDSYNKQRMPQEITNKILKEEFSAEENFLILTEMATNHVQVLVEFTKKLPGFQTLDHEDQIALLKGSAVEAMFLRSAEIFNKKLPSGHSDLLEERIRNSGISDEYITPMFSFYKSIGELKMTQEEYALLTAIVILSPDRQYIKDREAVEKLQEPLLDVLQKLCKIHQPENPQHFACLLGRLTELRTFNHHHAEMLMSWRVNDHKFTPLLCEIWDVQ

| SMILES | EC50 |
| --- | --- |
| COc1ccc(-c2noc(C34CCC(OCc5c(-c6c(Cl)cncc6Cl)noc5C5CC5)(CC3)CO4)n2)cc1C(=O)O [Example 455, 5-(5-(4-((5-cyclopropyl-3-(3,5-dichloropyridin-4-yl)isoxazol-4-yl)methoxy)-2-oxabicyclo[2.2.2]octan-1-yl)-1,2,4-oxadiazol-3-yl)-2-methoxybenzoic acid] | 290 nM |
| O=C(O)c1cccc2nc(C34CCC(CCc5c(-c6ccccc6OC(F)(F)F)noc5C5CC5)(CC3)CC4)sc12 [Example 456, 2-(4-(2-(5-cyclopropyl-3-(2-(trifluoromethoxy)phenyl)isoxazol-4-yl)ethyl)bicyclo[2.2.2]octan-1-yl)benzo[d]thiazole-7-carboxylic acid] | 22 nM |
| O=C(O)c1ccc(C23CCC(/C=C/c4c(-c5c(Cl)cncc5Cl)noc4C4CC4)(CC2)CO3)cc1 [Example 457, (E)-4-(4-(2-(5-cyclopropyl-3-(3,5-dichloropyridin-4-yl)isoxazol-4-yl)vinyl)-2-oxabicyclo[2.2.2]octan-1-yl)benzoic acid] | 87 nM |
| O=C(O)c1cc(F)cc(-c2noc(C34CCC(OCc5c(-c6c(Cl)cncc6Cl)noc5C5CC5)(CC3)CC4)n2)c1 [Example 458, 3-(5-(4-((5-cyclopropyl-3-(3,5-dichloropyridin-4-yl)isoxazol-4-yl)methoxy)bicyclo[2.2.2]octan-1-yl)-1,2,4-oxadiazol-3-yl)-5-fluorobenzoic acid] | 85 nM |
| COc1ccc(C(=O)O)cc1-c1noc(C23CCC(OCc4c(-c5c(Cl)cncc5Cl)noc4C4CC4)(CC2)CC3)n1 [Example 459, 3-(5-(4-((5-cyclopropyl-3-(3,5-dichloropyridin-4-yl)isoxazol-4-yl)methoxy)bicyclo[2.2.2]octan-1-yl)-1,2,4-oxadiazol-3-yl)-4-methoxybenzoic acid] | 630 nM |
| O=C(O)c1ccc(F)c(-c2noc(C34CCC(OCc5c(-c6c(Cl)cncc6Cl)noc5C5CC5)(CC3)CC4)n2)c1 [Example 461, 3-(5-(4-((5-cyclopropyl-3-(3,5-dichloropyridin-4-yl)isoxazol-4-yl)methoxy)bicyclo[2.2.2]octan-1-yl)-1,2,4-oxadiazol-3-yl)-4-fluorobenzoic acid] | 190 nM |
| N#Cc1cnc2ccc(OCC34CCC(OCc5c(-c6c(Cl)cncc6Cl)noc5C5CC5)(CC3)CC4)nn12 [Example 462, 6-((4-((5-cyclopropyl-3-(3,5-dichloropyridin-4-yl)isoxazol-4-yl)methoxy)bicyclo[2.2.2]octan-1-yl)methoxy)imidazo[1,2-b]pyridazine-3-carbonitrile] | 220 nM |
| O=C(O)c1cc(F)cc2nc(OCC34CCC(OCc5c(-c6c(Cl)cncc6Cl)noc5C5CC5)(CC3)CC4)sc12 [Example 463, 2-((4-((5-cyclopropyl-3-(3,5-dichloropyridin-4-yl)isoxazol-4-yl)methoxy)bicyclo[2.2.2]octan-1-yl)methoxy)-5-fluorobenzo[d]thiazole-7-carboxylic acid] | 41 nM |
| O=C(O)c1cc(OCC23CCC(COCc4c(-c5c(Cl)cncc5Cl)noc4C4CC4)(CC2)CC3)cc(C(F)(F)F)c1 [Example 464, 3-((4-(((5-cyclopropyl-3-(3,5-dichloropyridin-4-yl)isoxazol-4-yl)methoxy)methyl)bicyclo[2.2.2]octan-1-yl)methoxy)-5-(trifluoromethyl)benzoic acid] | 300 nM |
| O=C(O)c1csc(OCC23CCC(OCc4c(-c5c(Cl)cncc5Cl)noc4C4CC4)(CC2)CC3)n1 [Example 465, 2-((4-((5-cyclopropyl-3-(3,5-dichloropyridin-4-yl)isoxazol-4-yl)methoxy)bicyclo[2.2.2]octan-1-yl)methoxy)thiazole-4-carboxylic acid] | 180 nM |
| O=C(O)c1cnc2ccc(OCC34CCC(OCc5c(-c6c(Cl)cncc6Cl)noc5C5CC5)(CC3)CC4)nn12 [Example 466, 6-((4-((5-cyclopropyl-3-(3,5-dichloropyridin-4-yl)isoxazol-4-yl)methoxy)bicyclo[2.2.2]octan-1-yl)methoxy)imidazo[1,2-b]pyridazine-3-carboxylic acid] | 390 nM |
| O=C(O)c1cccc(-c2noc(C34CCC(/C=C/c5c(-c6c(Cl)cncc6Cl)noc5C5CC5)(CC3)CO4)n2)c1 [Example 467, (E)-3-(5-(4-(2-(5-cyclopropyl-3-(3,5-dichloropyridin-4-yl)isoxazol-4-yl)vinyl)-2-oxabicyclo[2.2.2]octan-1-yl)-1,2,4-oxadiazol-3-yl)benzoic acid] | 260 nM |
| O=C(O)c1cc(OCC23CCC(/C=C/c4c(-c5c(Cl)cncc5Cl)noc4C4CC4)(CC2)CO3)cc(C(F)(F)F)c1 [Example 468, (E)-3-((4-(2-(5-cyclopropyl-3-(3,5-dichloropyridin-4-yl)isoxazol-4-yl)vinyl)-2-oxabicyclo[2.2.2]octan-1-yl)methoxy)-5-(trifluoromethyl)benzoic acid] | 70 nM |
| O=C(O)c1cc(F)cc2nc(OCC34CCC(/C=C/c5c(-c6c(Cl)cncc6Cl)noc5C5CC5)(CC3)CC4)sc12 [Example 469, (E)-2-((4-(2-(5-cyclopropyl-3-(3,5-dichloropyridin-4-yl)isoxazol-4-yl)vinyl)bicyclo[2.2.2]octan-1-yl)methoxy)-5-fluorobenzo[d]thiazole-7-carboxylic acid] | 190 nM |
| COc1cc(OCC23CCC(/C=C/c4c(-c5c(Cl)cncc5Cl)noc4C4CC4)(CC2)CO3)cc(C(=O)O)c1 [Example 470, (E)-3-((4-(2-(5-cyclopropyl-3-(3,5-dichloropyridin-4-yl)isoxazol-4-yl)vinyl)-2-oxabicyclo[2.2.2]octan-1-yl)methoxy)-5-methoxybenzoic acid] | 110 nM |
| O=C(O)c1cc(OC(F)F)c2cc(OCC34CCC(OCc5c(-c6c(Cl)cncc6Cl)noc5C5CC5)(CC3)CO4)ccc2n1 [Example 471, 6-((4-((5-cyclopropyl-3-(3,5-dichloropyridin-4-yl)isoxazol-4-yl)methoxy)-2-oxabicyclo[2.2.2]octan-1-yl)methoxy)-4-(difluoromethoxy)quinoline-2-carboxylic acid] | 200 nM |
| O=C(O)c1cc(OC(F)F)c2cc(OCC34CCC(/C=C/c5c(-c6c(Cl)cncc6Cl)noc5C5CC5)(CC3)OC4)ccc2n1 [Example 472, (E)-6-((1-(2-(5-cyclopropyl-3-(3,5-dichloropyridin-4-yl)isoxazol-4-yl)vinyl)-2-oxabicyclo[2.2.2]octan-4-yl)methoxy)-4-(difluoromethoxy)quinoline-2-carboxylic acid] | 290 nM |
| O=C(O)c1cc(OCC23CCC(/C=C/c4c(-c5c(Cl)cncc5Cl)noc4C4CC4)(CC2)OC3)cc(C(F)(F)F)c1 [Example 473, (E)-3-((1-(2-(5-cyclopropyl-3-(3,5-dichloropyridin-4-yl)isoxazol-4-yl)vinyl)-2-oxabicyclo[2.2.2]octan-4-yl)methoxy)-5-(trifluoromethyl)benzoic acid] | 320 nM |
| COc1cc(OCC23CCC(/C=C/c4c(-c5c(Cl)cncc5Cl)noc4C4CC4)(CC2)OC3)cc(C(=O)O)c1 [Example 474, (E)-3-((1-(2-(5-cyclopropyl-3-(3,5-dichloropyridin-4-yl)isoxazol-4-yl)vinyl)-2-oxabicyclo[2.2.2]octan-4-yl)methoxy)-5-methoxybenzoic acid] | 490 nM |
